Test results as given in the supplement of paper PMC11061612.

Key:
[1] = compound: CC(=O)Nc1cccc(-n2c(=O)n(C3CC3)c(=O)c3c(Nc4ccc(I)cc4F)n(C)c(=O)c(C)c32)c1 [Trametinib]; conditions: max 1 µM
How it was run: (§1)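 Viability was measured with CellTiter-Glo 2.0 luminescence after 72 hours of dosing at a final DMSO of typically 0.2%, and scaled between blank-well and DMSO-well means. Beforehand, cancer cell lines sat 24 hours at 37°C and 5% CO2 in 1536-well plates in 7.5 μl DMEM/F12 or RPMI with 10% FBS. A non-linear mixed effects model fitted two-parameter logistic curves to the dose responses. The single-agent IC50 comes from these fits.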

[2] = compound: CC(C)n1c(=O)n(C)c2cnc3cc(F)c(-c4ccc(OCCCN5CCCCC5)nc4)cc3c21 [AZD1390]; conditions: max 0.3 µM
How it was run: as §1

[3] = compound: COc1nnc2ccc(N3CCC(c4ccc(OCCN5CCN(C)C(=O)[C@H]5C)cc4)CC3)nn12 [AZD5153]; conditions: max 1 µM
How it was run: as §1

[4] = compound: CC1=CN2[C@@H](C1)C=NC3=CC(=C(C=C3C2=O)OC)OCCCCCOC4=C(C=C5C(=C4)N=C[C@@H]6CC(=CN6C5=O)C)OC [SG3199]; conditions: max 0.001 µM
How it was run: as §1

[5] = compound: COc1cc2ncnc(Nc3ccc(F)c(Cl)c3)c2cc1OCCCN1CCOCC1 [Gefitinib]; conditions: max 10 µM
How it was run: as §1

[6] = compound: C[C@@H](Nc1cc(F)cc(F)c1)c1cc(C(=O)N(C)C)cc2c(=O)cc(N3CCOCC3)oc12 [AZD8186]; conditions: max 3 µM
How it was run: as §1

[7] = compound: CN(C)CCCOc1ccc(-c2ccc3ncc4c(c3c2)n(C2CCOCC2)c(=O)n4C)cn1 [AZD0156]; conditions: max 3 µM
How it was run: as §1

[8] = compound: C1CN(CCC1(C(=O)N[C@@H](CCO)C2=CC=C(C=C2)Cl)N)C3=NC=NC4=C3C=CN4 [Capivasertib]; conditions: max 10 µM
How it was run: as §1

[9] = compound: C[C@@H](Oc1cc(-c2cnn(C3CCNCC3)c2)cnc1N)c1c(Cl)ccc(F)c1Cl [Crizotinib]; conditions: max 10 µM
How it was run: as §1

[10] = compound: CS(=O)(=O)CCNCc1ccc(-c2ccc3ncnc(Nc4ccc(OCc5cccc(F)c5)c(Cl)c4)c3c2)o1 [Lapatinib]; conditions: max 10 µM
How it was run: as §1

[11] = compound: CC1=C(C(=CC=C1)Cl)NC(=O)C2=CN=C(S2)NC3=CC(=NC(=N3)C)N4CCN(CC4)CCO [Dasatinib]; conditions: max 2 µM
How it was run: as §1

[12] = compound: COc1cccc2c1C(=O)c1c(O)c3c(c(O)c1C2=O)C[C@@](O)(C(=O)CO)C[C@@H]3O[C@H]1C[C@H](N)[C@H](O)[C@H](C)O1 [Doxorubicin]; conditions: max 1 µM
How it was run: as §1

[13] = compound: CCN(CCO)CCCOc1ccc2c(Nc3cc(CC(=O)Nc4cccc(F)c4)[nH]n3)ncnc2c1 [AZD2811]; conditions: max 1 µM
How it was run: as §1

[14] = compound: Cc1c2c(nn1C)CSCc1cc(n(C)n1)CSc1cc(c3ccccc3c1)OCCCc1c(C(=O)O)n(C)c3c-2c(Cl)ccc13 [AZD5991]; conditions: max 1 µM
How it was run: as §1

[15] = compound: CN(CC[C@H](CSC1=CC=CC=C1)NC2=C(C=C(C=C2)S(=O)(=O)NC(=O)C3=CC=C(C=C3)N4CCC(CC4)[C@H](C5=CC=CC=C5C6=CC=C(C=C6)Cl)O)S(=O)(=O)C(F)(F)F)CCO [AZD4320]; conditions: max 1 µM
How it was run: as §1

[16] = compound: C[C@@H](c1ccc2nccn2c1)n1nnc2ncc(-c3cnn(C)c3)nc21 [Savolitinib]; conditions: max 1 µM
How it was run: as §1

[17] = compound: O=C(c1cc(Cc2n[nH]c(=O)c3ccccc23)ccc1F)N1CCN(C(=O)C2CC2)CC1 [Olaparib]; conditions: max 10 µM
How it was run: as §1

[18] = compound: COc1cccc(OCCCN)c1-c1cc(Nc2cnc(C#N)cn2)n[nH]1 [Prexasertib]; conditions: max 1 µM
How it was run: as §1

[19] = compound: CC(=O)c1c(C)c2cnc(Nc3ccc(N4CCNCC4)cn3)nc2n(C2CCCC2)c1=O [Palbociclib]; conditions: max 10 µM
How it was run: as §1

[20] = compound: Cc1nc(-c2cn3c(n2)-c2ccc(-c4cnn(C(C)(C)C(N)=O)c4)cc2OCC3)n(C(C)C)n1 [Taselisib]; conditions: max 10 µM
How it was run: as §1

[21] = compound: Cn1cnc2c(F)c(Nc3ccc(Br)cc3Cl)c(C(=O)NOCCO)cc21 [Selumetinib]; conditions: max 10 µM
How it was run: as §1

[22] = compound: CCc1c2c(nc3ccc(O)cc13)-c1cc3c(c(=O)n1C2)COC(=O)[C@]3(O)CC [SN-38]; conditions: max 0.3 µM
How it was run: as §1

[23] = compound: COc1cc(Nc2ncc3c(n2)-c2ccc(Cl)cc2C(c2c(F)cccc2OC)=NC3)ccc1C(=O)O [Alisertib]; conditions: max 10 µM
How it was run: as §1

[24] = compound: C=CCn1c(=O)c2cnc(Nc3ccc(N4CCN(C)CC4)cc3)nc2n1-c1cccc(C(C)(C)O)n1 [AZD1775]; conditions: max 3 µM
How it was run: as §1

[25] = compound: Cc1cc2ncnn2cc1Nc1ncc2c(n1)n(C1CCOCC1)c(=O)n2C [AZD7648]; conditions: max 10 µM
How it was run: as §1

[26] = compound: C[C@@H]1COCCN1C2=NC(=NC(=C2)C3(CC3)[S@](=N)(=O)C)C4=C5C=CNC5=NC=C4 [AZD6738]; conditions: max 10 µM
How it was run: as §1

[27] = compound: CC1(C)CCC(CN2CCN(c3ccc(C(=O)NS(=O)(=O)c4ccc(NCC5CCOCC5)c([N+](=O)[O-])c4)c(Oc4cnc5[nH]ccc5c4)c3)CC2)=C(c2ccc(Cl)cc2)C1 [Venetoclax]; conditions: max 1 µM
How it was run: as §1

| Cell Line | IC50, cell viability 72 h [1] [µM] | IC50, cell viability 72 h [2] [µM] | IC50, cell viability 72 h [3] [µM] | IC50, cell viability 72 h [4] [µM] | IC50, cell viability 72 h [5] [µM] | IC50, cell viability 72 h [6] [µM] | IC50, cell viability 72 h [7] [µM] | IC50, cell viability 72 h [8] [µM] | IC50, cell viability 72 h [9] [µM] | IC50, cell viability 72 h [10] [µM] | IC50, cell viability 72 h [11] [µM] | IC50, cell viability 72 h [12] [µM] | IC50, cell viability 72 h [13] [µM] | IC50, cell viability 72 h [14] [µM] | IC50, cell viability 72 h [15] [µM] | IC50, cell viability 72 h [16] [µM] | IC50, cell viability 72 h [17] [µM] | IC50, cell viability 72 h [18] [µM] | IC50, cell viability 72 h [19] [µM] | IC50, cell viability 72 h [20] [µM] | IC50, cell viability 72 h [21] [µM] | IC50, cell viability 72 h [22] [µM] | IC50, cell viability 72 h [23] [µM] | IC50, cell viability 72 h [24] [µM] | IC50, cell viability 72 h [25] [µM] | IC50, cell viability 72 h [26] [µM] | IC50, cell viability 72 h [27] [µM] |
| --- | --- | --- | --- | --- | --- | --- | --- | --- | --- | --- | --- | --- | --- | --- | --- | --- | --- | --- | --- | --- | --- | --- | --- | --- | --- | --- | --- |
| HDQ-P1 (Breast Carcinoma) | > 1 | > 0.3 | > 1 | > 0.001 | > 10 | > 3 | > 3 | > 10 | > 10 | > 10 | 0.103 | > 1 | > 1 | > 1 | > 1 | > 1 | > 10 | 0.53 | > 10 | 4.57 | > 10 | 0.0958 | > 10 | 0.565 | > 10 | > 10 | > 1 |
| HL-60 (Acute Myeloid Leukemia) | 0.0124 | > 0.3 | 0.037 | > 0.001 | > 10 | > 3 | > 3 | > 10 | 5.82 | > 10 | > 2 | 0.159 | 0.0306 | 0.0357 | 0.0327 | > 1 | > 10 | 0.0166 | > 10 | > 10 | 0.642 | 0.00604 | 0.407 | 1.67 | > 10 | 7.32 | 0.0803 |
| KARPAS-45 (T-Lymphoblastic Leukemia) | > 1 | > 0.3 | 0.0251 | > 0.001 | 9.06 | > 3 | > 3 | 3.21 | 1.17 | 4.37 | 0.937 | > 1 | 0.00687 | 0.0931 | 0.0521 | > 1 | > 10 | 0.0336 | 0.624 | 1.45 | > 10 | > 0.3 | 0.0863 | 0.243 | > 10 | 3.14 | > 1 |
| KCL-22 (Chronic Myelogenous Leukemia) | 0.915 | > 0.3 | 0.273 | > 0.001 | > 10 | > 3 | > 3 | > 10 | 2.01 | > 10 | < 0.002 | 0.335 | > 1 | 0.369 | > 1 | > 1 | > 10 | 0.0138 | > 10 | > 10 | > 10 | 0.0379 | 8.16 | 0.525 | > 10 | 0.927 | > 1 |
